The values that follow come from ChEMBL document CHEMBL4334438, “Discovery of novel glycogen synthase kinase-3α inhibitors: Structure-based virtual screening, preliminary SAR and biological evaluation for treatment of acute myeloid leukemia” (Eur J Med Chem, 2019).

Activity calls are given as the source filed them. The rule behind the calls is not given here.

In data set [1] the target is Serine/threonine-protein kinase BRSK1 (Homo sapiens) (UniProt Q8TDC3). Nature of the data set: Inhibition of recombinant human BRSK1 ( 2 to end residues) assessed as residual activity at 1 uM using KKKVSRSGLYRSPSMPENLNRPR as substrate incubated for 40 mins in presence of [gamma-33ATP] by scintillation counting based radiometry assay relative to control.
The target in data set [2] is Dual specificity mitogen-activated protein kinase kinase 7 (Homo sapiens) (UniProt O14733). Nature of the data set: Inhibition of recombinant human MKK7beta (2 to end residues) assessed as residual activity at 1 uM using inactive JNK1a1 as substrate incubated for 40 mins in presence of [gamma-33ATP by scintillation counting based radiometry assay relative to control.

In data set [3] the target is Phosphatidylinositol 4-phosphate 5-kinase type-1 alpha (Homo sapiens) (UniProt Q99755). Nature of the data set: Inhibition of recombinant full-length human PIP5K1alpha at 1 uM assessed as residual activity at 1 uM using phosphatidylinositol 4-phosphate as substrate measured after 40 mins by HTRF assay. A general note: In TR-FRET formats the signal depends on donor and acceptor labels being close together.

Data set [4] deals with HL-60. Nature of the data set: Inhibition of colony formation in human HL60 cells preincubated for 72 hrs followed by compound washout and measured after 7 to 10 days. It is filed as functional, cell-based.
For data set [5], the target named is CDK17/Cyclin-Y (Homo sapiens) (UniProt Q00537+Q8ND76). Nature of the data set: Inhibition of recombinant full length human CDK17/cyclinY assessed as residual activity at 1 uM using PKSPKARKKL as substrate incubated for 120 mins in presence of [gamma-33ATP] by scintillation counting based radiometry assay relative to control. It is filed as protein-complex assay.

Data set [6] concerns the target Citron Rho-interacting kinase (Homo sapiens) (UniProt O14578). Nature of the data set: Inhibition of recombinant human CRIK assessed as residual activity at 1 uM KKLRRTLSVA as substrate incubated 120 mins by scintillation counting method relative to control.
Data set [7] has as its target Casein kinase I isoform alpha (Homo sapiens) (UniProt P48729). Nature of the data set: Inhibition of recombinant human CK1alpha expressed in Escherichia coli assessed as residual activity at 1 uMu sing CK1 peptide as substrate preincubated for 15 mins followed by substrate addition and measured after 30 mins in presence of [gamma-33ATP] by scintillation counting method relative to control. The note with it: 1 uM.

The target in data set [8] is STE20/SPS1-related proline-alanine-rich protein kinase (Homo sapiens) (UniProt Q9UEW8). Nature of the data set: Inhibition of recombinant human STK39 assessed as residual activity at 1 uM in presence of [gamma33P]ATP by scintillation counting based radiometry assay relative to control.
Data set [9] addresses AP2-associated protein kinase 1 (Homo sapiens) (UniProt Q2M2I8). Nature of the data set: Inhibition of human AAK1 assessed as residual activity at 1 uM using peptide as substrate incubated for 120 mins in presence of [gamma-33ATP] by scintillation counting based radiometry assay relative to control.
Data set [10] has as its system HL-60. Nature of the data set: Induction of monocytic differentiation in human HL60 monocytic assessed as increase in CD11c-APC positive cells at 30 uM after 6 days by flow cytometry analysis. It is filed as functional, cell-based.
Data set [11] deals with Serine/threonine-protein kinase OSR1 (Homo sapiens) (UniProt O95747). Nature of the data set: Inhibition of recombinant human OSR1 assessed as residual activity at 1 uM relative to control.
Data set [12] concerns the target BMP-2-inducible protein kinase (Homo sapiens) (UniProt Q9NSY1). Nature of the data set: Inhibition of recombinant human BIKe assessed as residual activity at 1 uM using peptide as substrate incubated for 120 mins in presence of [gamma-33ATP] by scintillation counting based radiometry assay relative to control.
In data set [13] the target is Cyclin-Y/Cyclin-dependent kinase 16 (Homo sapiens) (UniProt Q00536+Q8ND76). Nature of the data set: Inhibition of recombinant full length human CDK16/cyclinY assessed as residual activity at 1 uM using PKSPKARKKL as substrate incubated for 120 mins in presence of [gamma-33ATP] by scintillation counting based radiometry assay relative to control. It is filed as protein-complex assay.

Data set [14] addresses Serine/threonine-protein kinase LATS2 (Homo sapiens) (UniProt Q9NRM7). Nature of the data set: Inhibition of human LATS2 assessed as residual activity at 1 uM by radiometric assay relative to control.
In data set [15] the target is Serine/threonine-protein kinase LATS1 (Homo sapiens) (UniProt O95835). Nature of the data set: Inhibition of human LATS1 assessed as residual activity at 1 uM by radiometric assay relative to control.
Data set [16] has as its system NB-4. Nature of the data set: Effect on total beta-catenin level in human NB4 cells at 1 to 30 uM after 24 hrs by Western blot analysis. The format is ADME, cell-based. The note with it: nb-4, 24 h. In general terms: Immunoblotting shows a protein as a band on a membrane.
The subject of data set [17] is HL-60. Nature of the data set: Induction of cell death in human HL60 cells at 10 to 30 uM after 6 days by trypan blue assay. It is filed as cell-based. The note with it: hl-60, 144 h.
Data set [18] deals with HL-60. Nature of the data set: Effect on total beta-catenin level in human HL60 cells at 1 to 30 uM after 24 hrs by Western blot analysis. It is filed as ADME, cell-based. To be noted: hl-60, 24 h.
In data set [19] the test system is NB-4. Nature of the data set: Antiproliferative activity against human NB4 cells assessed as reduction in viability after 3 days by SRB assay. The format is functional, cell-based. A general note: Sulforhodamine B stains cellular protein and so reports cell mass.
Data set [20] deals with Serine/threonine-protein kinase WNK4 (Homo sapiens) (UniProt Q96J92). Nature of the data set: Inhibition of human WNK4 assessed as residual activity at 1 uM using myelin basic protein as substrate measured after 120 mins in presence of [gamma33P]ATP by scintillation counting method relative to control.
Data set [21] deals with T1, Glycogen synthase kinase-3 alpha (Homo sapiens, UniProt P49840). Nature of the data set: Inhibition of GSK-3alpha phosphorylation at Y279 residue in human NB4 cells after 24 hrs by Western blot analysis. It is filed as cell-based.
Data set [22] concerns NB-4. Nature of the data set: Induction of cell death in human NB4 cells at 10 to 30 uM after 6 days by trypan blue assay. The note with it: nb-4, 144 h. It is filed as cell-based.
Data set [23] addresses T1, Glycogen synthase kinase-3 alpha. Nature of the data set: Inhibition of GSK-3alpha phosphorylation at Y279 residue in human HL60 cells after 24 hrs by Western blot analysis. It is filed as cell-based.
The subject of data set [24] is HL-60. Nature of the data set: Induction of monocytic differentiation in human HL60 cells assessed as increase in CD14-FITC positive cells at 30 uM after 6 days by flow cytometry analysis. The format is functional, cell-based.
Data set [25] concerns the target Mitogen-activated protein kinase kinase kinase 21 (Homo sapiens) (UniProt Q5TCX8). Nature of the data set: Inhibition of recombinant human MLK4 assessed as residual activity at 1 uM using by radiometry assay relative to control.
Data set [26] has as its system NB-4. Nature of the data set: Inhibition of colony formation in human NB4 cells preincubated for 72 hrs followed by compound washout and measured after 7 to 10 days. It is filed as functional, cell-based.
The test system of data set [27] is NB-4. Nature of the data set: Induction of monocytic differentiation in human NB4 cells assessed as increase in CD11b-APC-Cy7 positive cells at 30 uM after 6 days by flow cytometry analysis. It is filed as functional, cell-based.
Data set [28] relates to Serine/threonine-protein kinase 38 (NDR1). Nature of the data set: Inhibition of recombinant human NDR1 assessed as residual activity at 1 uM relative to control.
Data set [29] has as its system HL-60. Nature of the data set: Antiproliferative activity against human HL60 cells assessed as reduction in viability after 3 days by SRB assay. It is filed as functional, cell-based.
Data set [30] addresses Serine/threonine-protein kinase MRCK gamma (Homo sapiens) (UniProt Q6DT37). Nature of the data set: Inhibition of recombinant human MRCKgamma assessed as residual activity at 1 uM using KKRNRTLTV as substrate measured after 40 mins in presence of [gamma33P]ATP by scintillation counting method relative to control.
Data set [31] has as its system NB-4. Nature of the data set: Induction of cell differentiation in human NB4 cells assessed as increase in CD14-FITC positive cells after 6 days by flow cytometry analysis. The format is functional, cell-based.

Sequence of Serine/threonine-protein kinase BRSK1 (Homo sapiens) (Q8TDC3 whole entry): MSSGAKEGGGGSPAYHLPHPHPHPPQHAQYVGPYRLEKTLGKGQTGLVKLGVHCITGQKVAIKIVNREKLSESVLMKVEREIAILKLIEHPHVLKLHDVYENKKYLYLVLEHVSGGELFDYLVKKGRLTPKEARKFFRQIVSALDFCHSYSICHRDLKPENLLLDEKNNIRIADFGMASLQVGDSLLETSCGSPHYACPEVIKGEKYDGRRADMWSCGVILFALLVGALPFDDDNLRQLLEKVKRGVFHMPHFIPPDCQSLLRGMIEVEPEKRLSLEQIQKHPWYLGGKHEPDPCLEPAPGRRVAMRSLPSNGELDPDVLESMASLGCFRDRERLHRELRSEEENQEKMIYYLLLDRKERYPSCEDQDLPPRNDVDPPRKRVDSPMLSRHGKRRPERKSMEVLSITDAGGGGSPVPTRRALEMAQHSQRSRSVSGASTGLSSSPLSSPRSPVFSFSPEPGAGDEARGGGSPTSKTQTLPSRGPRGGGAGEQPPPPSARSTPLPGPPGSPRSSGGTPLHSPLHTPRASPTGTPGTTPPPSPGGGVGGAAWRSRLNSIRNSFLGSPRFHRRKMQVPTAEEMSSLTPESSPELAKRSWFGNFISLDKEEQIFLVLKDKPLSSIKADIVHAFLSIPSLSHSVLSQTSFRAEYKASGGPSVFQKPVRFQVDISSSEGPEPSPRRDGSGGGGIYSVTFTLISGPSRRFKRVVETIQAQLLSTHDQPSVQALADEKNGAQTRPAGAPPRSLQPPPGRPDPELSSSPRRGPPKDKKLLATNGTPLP
T1 sequence (P49840 2-483 limits assumed): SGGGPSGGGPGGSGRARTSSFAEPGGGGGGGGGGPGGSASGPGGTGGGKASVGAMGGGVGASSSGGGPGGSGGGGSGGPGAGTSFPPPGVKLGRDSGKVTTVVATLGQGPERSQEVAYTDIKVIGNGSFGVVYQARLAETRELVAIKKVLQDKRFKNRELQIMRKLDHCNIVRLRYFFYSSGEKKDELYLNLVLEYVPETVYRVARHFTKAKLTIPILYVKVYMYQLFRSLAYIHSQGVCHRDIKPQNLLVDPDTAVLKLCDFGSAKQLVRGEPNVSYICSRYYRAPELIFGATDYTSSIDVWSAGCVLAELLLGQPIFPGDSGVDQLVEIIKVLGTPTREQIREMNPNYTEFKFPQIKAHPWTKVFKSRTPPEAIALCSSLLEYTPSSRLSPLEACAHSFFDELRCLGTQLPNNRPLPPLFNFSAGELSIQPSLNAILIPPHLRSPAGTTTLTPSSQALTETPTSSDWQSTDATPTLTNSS
Sequence of Phosphatidylinositol 4-phosphate 5-kinase type-1 alpha (Homo sapiens) (Q99755 whole entry): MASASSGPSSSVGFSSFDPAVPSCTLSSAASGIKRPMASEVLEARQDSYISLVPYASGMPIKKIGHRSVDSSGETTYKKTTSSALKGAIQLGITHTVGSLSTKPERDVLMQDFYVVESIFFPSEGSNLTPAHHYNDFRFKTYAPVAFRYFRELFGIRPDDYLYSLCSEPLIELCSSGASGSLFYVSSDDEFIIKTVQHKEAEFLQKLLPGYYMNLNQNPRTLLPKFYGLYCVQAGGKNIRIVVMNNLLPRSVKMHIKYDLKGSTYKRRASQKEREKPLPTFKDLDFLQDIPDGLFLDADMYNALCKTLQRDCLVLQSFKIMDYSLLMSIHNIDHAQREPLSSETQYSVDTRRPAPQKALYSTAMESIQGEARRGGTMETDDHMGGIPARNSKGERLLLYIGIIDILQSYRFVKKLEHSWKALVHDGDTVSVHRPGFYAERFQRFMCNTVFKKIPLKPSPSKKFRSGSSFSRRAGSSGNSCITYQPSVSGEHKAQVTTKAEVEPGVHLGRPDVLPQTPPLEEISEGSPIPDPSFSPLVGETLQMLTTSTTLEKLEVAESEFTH
Sequence of Mitogen-activated protein kinase kinase kinase 21 (Homo sapiens) (Q5TCX8 whole entry): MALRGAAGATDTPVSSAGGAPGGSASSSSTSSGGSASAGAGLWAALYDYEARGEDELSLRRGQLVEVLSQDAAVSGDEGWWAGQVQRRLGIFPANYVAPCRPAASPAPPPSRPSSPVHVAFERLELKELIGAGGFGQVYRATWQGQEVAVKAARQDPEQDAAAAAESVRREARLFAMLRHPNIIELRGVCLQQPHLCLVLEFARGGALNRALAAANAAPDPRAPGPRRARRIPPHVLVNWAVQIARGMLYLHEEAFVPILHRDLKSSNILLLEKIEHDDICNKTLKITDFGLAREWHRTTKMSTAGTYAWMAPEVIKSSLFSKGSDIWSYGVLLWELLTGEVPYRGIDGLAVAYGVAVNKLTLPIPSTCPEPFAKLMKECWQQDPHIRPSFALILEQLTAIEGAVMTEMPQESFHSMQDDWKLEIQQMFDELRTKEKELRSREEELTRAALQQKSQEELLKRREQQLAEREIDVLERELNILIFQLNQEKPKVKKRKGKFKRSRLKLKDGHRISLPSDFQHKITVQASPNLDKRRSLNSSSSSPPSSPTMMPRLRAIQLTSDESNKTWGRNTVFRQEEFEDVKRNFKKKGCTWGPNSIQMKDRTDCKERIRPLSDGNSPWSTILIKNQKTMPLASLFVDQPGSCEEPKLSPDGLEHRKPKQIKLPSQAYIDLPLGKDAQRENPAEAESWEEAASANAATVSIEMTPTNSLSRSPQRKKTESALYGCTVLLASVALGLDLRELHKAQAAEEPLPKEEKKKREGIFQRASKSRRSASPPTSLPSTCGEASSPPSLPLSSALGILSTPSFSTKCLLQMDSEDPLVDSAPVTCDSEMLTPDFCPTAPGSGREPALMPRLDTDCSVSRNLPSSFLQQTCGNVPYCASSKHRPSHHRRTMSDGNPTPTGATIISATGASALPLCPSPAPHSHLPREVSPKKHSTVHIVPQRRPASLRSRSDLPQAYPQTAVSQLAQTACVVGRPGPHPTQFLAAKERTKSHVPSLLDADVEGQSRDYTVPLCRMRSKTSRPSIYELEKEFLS
Sequence of Serine/threonine-protein kinase OSR1 (Homo sapiens) (O95747 2-527 limits assumed): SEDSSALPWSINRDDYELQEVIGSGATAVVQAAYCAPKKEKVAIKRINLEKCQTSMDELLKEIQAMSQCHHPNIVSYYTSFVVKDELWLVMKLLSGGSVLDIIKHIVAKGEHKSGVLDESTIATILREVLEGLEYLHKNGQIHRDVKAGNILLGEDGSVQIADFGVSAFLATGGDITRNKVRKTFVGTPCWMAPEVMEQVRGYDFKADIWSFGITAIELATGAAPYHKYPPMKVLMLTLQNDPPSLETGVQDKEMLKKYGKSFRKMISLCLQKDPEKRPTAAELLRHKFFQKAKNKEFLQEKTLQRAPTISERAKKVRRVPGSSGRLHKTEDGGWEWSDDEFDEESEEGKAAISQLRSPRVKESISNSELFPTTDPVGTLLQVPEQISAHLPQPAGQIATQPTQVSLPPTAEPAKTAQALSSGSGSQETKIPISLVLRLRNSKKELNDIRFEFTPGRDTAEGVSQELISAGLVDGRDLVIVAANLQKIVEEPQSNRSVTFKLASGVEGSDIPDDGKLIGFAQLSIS
Sequence of AP2-associated protein kinase 1 (Homo sapiens) (Q2M2I8 whole entry, looked up): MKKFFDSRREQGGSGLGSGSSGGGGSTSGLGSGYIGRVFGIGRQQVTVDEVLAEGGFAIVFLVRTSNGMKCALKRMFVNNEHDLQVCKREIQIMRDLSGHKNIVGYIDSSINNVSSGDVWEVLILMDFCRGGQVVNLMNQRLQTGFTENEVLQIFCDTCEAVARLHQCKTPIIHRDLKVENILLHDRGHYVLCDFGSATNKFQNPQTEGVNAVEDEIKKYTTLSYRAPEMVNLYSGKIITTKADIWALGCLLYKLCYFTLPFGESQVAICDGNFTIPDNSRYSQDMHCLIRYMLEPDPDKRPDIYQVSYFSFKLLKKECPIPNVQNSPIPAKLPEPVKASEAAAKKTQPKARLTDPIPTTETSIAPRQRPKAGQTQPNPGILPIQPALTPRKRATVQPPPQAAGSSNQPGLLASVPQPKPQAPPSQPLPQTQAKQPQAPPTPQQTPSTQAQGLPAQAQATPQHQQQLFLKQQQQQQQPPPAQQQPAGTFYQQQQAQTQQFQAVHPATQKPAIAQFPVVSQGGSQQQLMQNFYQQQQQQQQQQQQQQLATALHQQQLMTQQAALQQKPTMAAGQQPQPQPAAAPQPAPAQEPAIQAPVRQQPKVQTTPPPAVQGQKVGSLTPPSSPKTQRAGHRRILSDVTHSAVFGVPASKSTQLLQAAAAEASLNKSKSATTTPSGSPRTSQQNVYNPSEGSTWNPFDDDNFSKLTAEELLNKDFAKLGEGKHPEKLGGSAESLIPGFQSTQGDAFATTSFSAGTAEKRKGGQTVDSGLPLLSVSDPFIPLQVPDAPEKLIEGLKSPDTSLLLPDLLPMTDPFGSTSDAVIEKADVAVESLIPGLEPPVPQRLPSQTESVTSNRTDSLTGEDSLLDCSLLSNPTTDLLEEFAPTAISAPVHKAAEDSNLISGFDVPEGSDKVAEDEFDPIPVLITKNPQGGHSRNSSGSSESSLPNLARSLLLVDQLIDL
Sequence of Casein kinase I isoform alpha (Homo sapiens) (P48729 2-337 limits assumed): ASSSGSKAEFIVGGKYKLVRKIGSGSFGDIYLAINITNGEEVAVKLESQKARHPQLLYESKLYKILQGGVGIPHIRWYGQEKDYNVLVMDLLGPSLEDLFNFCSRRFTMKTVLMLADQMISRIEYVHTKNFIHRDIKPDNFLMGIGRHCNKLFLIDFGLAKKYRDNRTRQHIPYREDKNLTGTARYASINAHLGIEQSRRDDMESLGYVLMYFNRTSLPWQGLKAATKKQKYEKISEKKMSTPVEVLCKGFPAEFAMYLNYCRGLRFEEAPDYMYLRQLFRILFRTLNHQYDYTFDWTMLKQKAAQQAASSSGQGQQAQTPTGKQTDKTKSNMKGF

Regarding `N=C1NC(=O)/C(=C\c2ccc(-c3cccc([N+](=O)[O-])c3)o2)S1`, the Activity is 65% in [1], 93% in data set [2] and 102% in data set [3].
Consider `C=CCOC(=O)c1cc(-c2ccc(/C=C3/NC(=S)NC3=O)o2)ccc1Cl`, for which the Activity in [1] stood at 89%; in [5], 72%; in [6] it was 95%; in [7] it was 96%; in data set [8], 103%; in data set [9] it was 101%. Also, the Activity is 118% in data set [11]; 111% in [12]; 82% in [13]; 100% in data set [14]; 114% in data set [15]; “Non-Toxic” in the data set on NB-4 [16]. The Activity entry in the data set with HL-60 [17] is “Non-Toxic”; in the data set on HL-60 [18], “Non-Toxic”; in the data set with NB-4 [19] it was “Dose-dependent effect”; in data set [20] it was 93%; in the data set on NB-4 [22], “Non-Toxic”; in data set [3], 98%. The Activity in data set [25] was 95%; in data set [28], 99%; in the data set with HL-60 [29], “Dose-dependent effect”; in data set [30], 110%; in the data set with NB-4 [31] it was “Dose-dependent effect”. Besides, the inhibition result (in the data set on HL-60 [4]; in data set [21]; in data set [23]; in the data set with NB-4 [26]) was “Dose-dependent effect” throughout. Besides, the result with HL-60 [10], with HL-60 [24] and in the data set on NB-4 [27] was Active.
